Test results taken from patent EP4596548A1, “NURR1 MODULATORS” (Ludwig-Maximilians-Universität, priority 2024, dated 2025).
Entries after “also recorded” stand apart in the source; their conditions may differ. Values belong to the compound of their own block, whether it stands above or below them.

Assays:
[1] = Compound stability (observation); type: physicochemical; details: printed in the EC50 column of Table 1
[2] = target: T1, Nurr1 (Homo sapiens, UniProt P43354); details: Nurr1 agonism, literature values (refs. 24, 27, 28); cited from earlier work
Target sequence in this assay (P43354 whole entry): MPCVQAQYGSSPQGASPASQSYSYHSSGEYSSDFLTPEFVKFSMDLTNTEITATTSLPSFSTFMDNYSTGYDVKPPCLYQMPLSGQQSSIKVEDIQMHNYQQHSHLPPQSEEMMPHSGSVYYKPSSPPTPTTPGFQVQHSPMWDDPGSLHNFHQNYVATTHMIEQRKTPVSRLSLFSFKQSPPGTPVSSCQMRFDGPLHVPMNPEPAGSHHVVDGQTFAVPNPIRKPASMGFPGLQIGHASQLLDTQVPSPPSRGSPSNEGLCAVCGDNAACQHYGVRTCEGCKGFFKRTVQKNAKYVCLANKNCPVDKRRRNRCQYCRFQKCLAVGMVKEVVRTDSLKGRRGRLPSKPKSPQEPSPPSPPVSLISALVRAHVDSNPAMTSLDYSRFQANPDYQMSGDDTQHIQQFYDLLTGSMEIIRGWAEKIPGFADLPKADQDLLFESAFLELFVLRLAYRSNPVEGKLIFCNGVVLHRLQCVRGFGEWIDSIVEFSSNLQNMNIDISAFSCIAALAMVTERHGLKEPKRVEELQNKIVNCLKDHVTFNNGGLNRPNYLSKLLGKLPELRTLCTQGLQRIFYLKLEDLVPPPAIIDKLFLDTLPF

[3] = target: T1, Nurr1; assay: Ligand efficiency metrics; details: computed according to ref. 29
Target sequence in this assay (P43354 whole entry): as above

[4] = target: T1, Nurr1; assay: Gal4-Nurr1 hybrid reporter gene assay in HEK293T cells; type: cell-based; set-up: expressed in transfected cells; host or cells: HEK293T
Protocol: (§1) Hybrid reporter gene assays. Nurr1 modulation was determined in a Gal4 hybrid reporter gene assay in HEK293T cells (German Collection of Microorganisms and Cell Culture GmbH, DSMZ) using pFR-Luc (Stratagene, La Jolla, CA, USA; reporter), pRL-SV40 (Promega, Madison, WI, USA; internal control) and pFA-CMV-hNurr1-LBD^14, coding for the hinge region and ligand binding domain of the canonical isoform of human Nurr1. […] After 24 h, medium was changed to Opti-MEM without supplements and cells were transiently transfected using Lipofectamine LTX reagent (Invitrogen, Carlsbad, CA, USA) according to the manufacturer's protocol. Five hours after transfection, cells were incubated with the test compounds in Opti-MEM supplemented with penicillin (100 U/mL), streptomycin (100 µg/mL) and 0.1% DMSO for 16 h before luciferase activity was measured using the Dual-Glo Luciferase Assay System (Promega) according to the manufacturer's protocol on a Tecan Spark luminometer (Tecan Deutschland GmbH, Crailsheim, Germany). Firefly luminescence was divided by Renilla luminescence and multiplied by 1000 resulting in relative light units (RLU) to normalize for transfection efficiency and cell growth. Fold activation was obtained by dividing the mean RLU of test compound by the mean RLU of the untreated control. All samples were tested in at least three biologically independent experiments in duplicates. For dose-response curve fitting and calculation of EC50 values, the equation "[Agonist] vs. response -- Variable slope (four parameters)" was used in GraphPad Prism (version 7.00, GraphPad Software, La Jolla, CA, USA). Selectivity profiling was performed with identical procedures using pFA-CMV-Nur77-LBD^14, pFA-CMV-NOR-1-LBD^14, pFA-CMV-THRα-LBD^39, pFA-CMV-RARα-LBD^40, pFA-CMV-PPARα-LBD^41, pFA-CMV-PPARγ-LBD^41, pFA-CMV-PPARδ-LBD^41, pFA-CMV-LXRα-LBD^37, pFA-CMV-FXR-LBD^42 and pFA-CMV-hRXRα-LBD^43.
Target sequence in this assay (P43354 360-595 limits assumed): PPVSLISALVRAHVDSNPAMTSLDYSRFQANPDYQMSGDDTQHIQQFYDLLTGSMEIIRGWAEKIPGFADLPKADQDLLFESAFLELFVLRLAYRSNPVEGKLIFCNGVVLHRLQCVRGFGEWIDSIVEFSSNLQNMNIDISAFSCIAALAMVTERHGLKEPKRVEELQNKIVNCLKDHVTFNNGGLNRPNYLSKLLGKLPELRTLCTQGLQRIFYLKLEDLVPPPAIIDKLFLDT

[5] = target: T2, Nurr1 monomer (NBRE) (Homo sapiens, UniProt P43354); assay: Full-length Nurr1 reporter gene assay, response element NBRE; type: cell-based; details: result in words, at 10 µM
T2 construct: The full length human nuclear receptor Nurr1 (pcDNA3.1-hNurr1-NE; Addgene plasmid #102363); NE (suffix in the plasmid name); host or cells: HEK293T
T2 sequence (P43354 whole entry): as the sequence (P43354 whole entry) above
Source text: (§2) Full-length Nurr1 reporter gene assays. Activation of full length human Nurr1 was studied in transiently transfected HEK293T cells using the reporter plasmids pFR-Luc-NBRE^14, pFR-Luc-POMC^14 or pFR-Luc-DR5^14 each containing one copy of the respective human Nurr1 response element NBRE Nl3, NurRE, or DR5. The full length human nuclear receptor Nurr1 (pcDNA3.1-hNurr1-NE; Addgene plasmid #102363) and, for DR5, RXRα (pSG5-hRXR)^44 were overexpressed. pRL-SV40 (Promega) was used for normalization of transfection efficacy and to observe test compound toxicity. […] After 24 h, medium was changed to Opti-MEM without supplements and cells were transiently transfected using Lipofectamine LTX reagent (invitrogen) according to the manufacturer's protocol. Five hours after transfection, cells were incubated with the test compounds in Opti-MEM supplemented with penicillin (100 U/mL), streptomycin (100 µg/mL) and 0.1% DMSO for 16 h before luciferase activity was measured using the Dual-Glo Luciferase Assay System (Promega) according to the manufacturer's protocol on a Tecan Spark luminometer (Tecan Deutschland GmbH). Firefly luminescence was divided by Renilla luminescence and multiplied by 1000 resulting in relative light units (RLU) to normalize for transfection efficiency and cell growth. […]

[6] = target: T3, Nurr1-RXR heterodimer (DR5) (Homo sapiens, UniProt P43354); assay: Full-length Nurr1 reporter gene assay, response element DR5 with RXRα; type: cell-based; details: result in words, at 10 µM
T3 construct: The full length human nuclear receptor Nurr1 (pcDNA3.1-hNurr1-NE; Addgene plasmid #102363); NE (suffix in the plasmid name); host or cells: HEK293T
T3 sequence (P43354 whole entry): as above
T3 sequence (P19793 whole entry partner): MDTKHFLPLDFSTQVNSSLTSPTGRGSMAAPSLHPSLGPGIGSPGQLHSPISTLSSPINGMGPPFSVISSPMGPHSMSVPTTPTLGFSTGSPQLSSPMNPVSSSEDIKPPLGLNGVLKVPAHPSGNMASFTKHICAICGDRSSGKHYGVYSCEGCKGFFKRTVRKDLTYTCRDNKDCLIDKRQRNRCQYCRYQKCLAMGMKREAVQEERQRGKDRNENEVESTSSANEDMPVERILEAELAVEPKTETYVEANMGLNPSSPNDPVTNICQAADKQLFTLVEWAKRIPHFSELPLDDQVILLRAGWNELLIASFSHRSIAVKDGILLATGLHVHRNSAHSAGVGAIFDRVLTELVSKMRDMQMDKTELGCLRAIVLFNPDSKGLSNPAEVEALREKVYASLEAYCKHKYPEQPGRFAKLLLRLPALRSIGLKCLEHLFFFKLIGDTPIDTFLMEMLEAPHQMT
Source text: Full-length Nurr1 reporter gene assays. Activation of full length human Nurr1 was studied in transiently transfected HEK293T cells using the reporter plasmids pFR-Luc-NBRE^14, pFR-Luc-POMC^14 or pFR-Luc-DR5^14 each containing one copy of the respective human Nurr1 response element NBRE Nl3, NurRE, or DR5. The full length human nuclear receptor Nurr1 (pcDNA3.1-hNurr1-NE; Addgene plasmid #102363) and, for DR5, RXRα (pSG5-hRXR)^44 were overexpressed. pRL-SV40 (Promega) was used for normalization of transfection efficacy and to observe test compound toxicity. […] After 24 h, medium was changed to Opti-MEM without supplements and cells were transiently transfected using Lipofectamine LTX reagent (invitrogen) according to the manufacturer's protocol. Five hours after transfection, cells were incubated with the test compounds in Opti-MEM supplemented with penicillin (100 U/mL), streptomycin (100 µg/mL) and 0.1% DMSO for 16 h before luciferase activity was measured using the Dual-Glo Luciferase Assay System (Promega) according to the manufacturer's protocol on a Tecan Spark luminometer (Tecan Deutschland GmbH). Firefly luminescence was divided by Renilla luminescence and multiplied by 1000 resulting in relative light units (RLU) to normalize for transfection efficiency and cell growth. Fold activation was obtained by dividing the mean RLU of test compound by the mean RLU of the untreated control. All samples were tested in at least three biologically independent experiments in duplicates. For dose-response curve fitting and calculation of EC50 values, the equation "[Agonist] vs. response -- Variable slope (four parameters)" was used in GraphPad Prism (version 7.00, GraphPad Software).

[7] = test system: Nurr1-regulated tyrosine hydroxylase (TH), vesicular amino acid transporter 2 (VMAT2) and superoxide dismutase 2 (SOD2) in astrocytes (T98G); assay: Nurr1-regulated gene expression in T98G cells (qPCR); type: cell-based, human; details: 10 µM
[8] = target: T4, NOR-1 (Homo sapiens, UniProt Q92570); assay: Gal4 hybrid reporter gene assay, selectivity profiling (NOR-1); type: cell-based; details: result in words, at 10 µM
T4 construct: pFA-CMV-NOR-1-LBD; expressed in transfected cells; host or cells: HEK293T
T4 sequence (Q92570 394-623 limits assumed): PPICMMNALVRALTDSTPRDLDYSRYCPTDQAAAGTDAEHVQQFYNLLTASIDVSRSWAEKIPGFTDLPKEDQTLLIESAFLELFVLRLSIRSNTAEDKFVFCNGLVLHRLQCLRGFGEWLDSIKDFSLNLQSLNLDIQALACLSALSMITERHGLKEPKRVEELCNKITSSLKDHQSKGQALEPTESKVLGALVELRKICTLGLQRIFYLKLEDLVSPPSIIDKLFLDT

[9] = target: T5, Nur77 (Homo sapiens, UniProt P22736); assay: Gal4 hybrid reporter gene assay, selectivity profiling (Nur77); type: cell-based; details: result in words, at 10 µM
T5 construct: expressed in transfected cells; host or cells: HEK293T
T5 sequence (P22736 360-595 limits assumed): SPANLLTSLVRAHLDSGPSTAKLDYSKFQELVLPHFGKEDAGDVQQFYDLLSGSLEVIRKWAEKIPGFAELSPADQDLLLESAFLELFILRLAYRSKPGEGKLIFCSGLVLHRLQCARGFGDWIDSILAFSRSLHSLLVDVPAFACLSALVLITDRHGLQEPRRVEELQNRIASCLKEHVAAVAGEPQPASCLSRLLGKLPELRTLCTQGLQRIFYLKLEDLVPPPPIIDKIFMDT
Protocol: as §1, with “For dose-response curve fitting and calculation of EC50 values, the equation "[Agonist] vs. response -- Variable slope (four parameters)" was used in GraphPad Prism (version 7.00, GraphPad Software, La Jolla, CA, USA). Selectivity profiling was performed with identical procedures using pFA-CMV-Nur77-LBD^14, pFA-CMV-NOR-1-LBD^14, pFA-CMV-THRα-LBD^39, pFA-CMV-RARα-LBD^40, pFA-CMV-PPARα-LBD^41, pFA-CMV-PPARγ-LBD^41, pFA-CMV-PPARδ-LBD^41, pFA-CMV-LXRα-LBD^37, pFA-CMV-FXR-LBD^42 and pFA-CMV-hRXRα-LBD^43.” left out

[10] = target: T6, Nurr1 homodimer (NurRE) (Homo sapiens, UniProt P43354); assay: Full-length Nurr1 reporter gene assay, response element NurRE; type: cell-based; details: result in words, at 10 µM
T6 construct: The full length human nuclear receptor Nurr1 (pcDNA3.1-hNurr1-NE; Addgene plasmid #102363); host or cells: HEK293T
T6 sequence (P43354 whole entry): as the sequence (P43354 whole entry) above
Source text: as §2

[11] = target: T7, Nurr1 LBD (Homo sapiens, UniProt P43354); assay: Isothermal titration calorimetry (ITC); type: binding; details: result in words; ITC with 100 µM 29 and 30 µM protein
T7 construct: Nurr1 LBD protein (10-30 µM, expressed as described previously^21); made in house
T7 sequence (P43354 360-595 limits assumed): as the sequence (P43354 360-595 limits assumed) above
Protocol: Isothermal Titration Calorimetry (ITC). ITC experiments were conducted on an Affinity ITC instrument (TA Instruments, New Castle, DE) at 25°C with a stirring rate of 75 rpm. Nurr1 LBD protein (10-30 µM, expressed as described previously^21) in buffer (20 mM Tris pH 7.5, 100 mM NaCl, 5% glycerol) containing 1-4% DMSO was titrated with the test compounds (60-150 µM in the same buffer containing 1-4% DMSO) in 26 injections (1x 1 µL, 25x 3-4 µL) with an injection interval of 150 s. As control experiments, the test compounds were titrated to the buffer, and the buffer was titrated to the Nurr1 LBD protein under otherwise identical conditions. Results were analyzed using NanoAnalyze software (version 3.11.0, TA Instruments, New Castle, DE) with independent binding models.

[12] = Determination of aqueous solubility; type: physicochemical; details: water, 24 h, 25°C
Protocol: Determination of aqueous solubility. […] The mixture was agitated in a VWR Thermal Shake lite (VWR International GmbH, Darmstadt, Germany) for 24 h at 600 rpm and constant temperature of 25°C. The supersaturated mixtures were subsequently centrifuged at 23.300 rpm for 15 min (25 °C). Part of the supernatant was taken off for quantification by UV absorbance at 312 nm with external calibration. The external calibration samples contained 1% DMSO and the test samples were spiked with DMSO to 1% concentration right before the measurement. Absorbance was measured with a Tecan Spark luminometer (Tecan Deutschland GmbH, Crailsheim, Germany). The solubility test was repeated in three independent experiments, […]

stability [1]: not stable; also recorded: unstable
Structure (SMILES): Cc1[nH]c2c(Cl)cccc2c1N [Compound 6, 7-chloro-2-methyl-1H-indol-3-amine]

ligand efficiency (LE) [3]: 0.26 | size-independent ligand eff. (SILE) [3]: 1.79
Structure (SMILES): CCN(CC)Cc1cc(Nc2ccnc3cc(Cl)ccc23)ccc1O [Compound 1, amodiaquine]
EC50 [2]: ~20 µM

less active than 36 as Nurr1 modulator [4]: more than 100 fold | EC50(NBRE) [5]: no activation (10 µM) | EC50(DR5) [+0.1 µM BEX] [6]: no activation (10 µM) | EC50(NurRE) [10]: no activation (10 µM) | aq. solubility [12]: 4.1 µg/mL
Structure (SMILES): Cc1nc2c(Cl)cccn2c1NC(=O)c1ccc(-c2ccccc2)[nH]1 [Compound 29]
EC50(Nurr1) (max. activation) ([4]; result in words, at 10 µM): no Nurr1 agonism; also recorded: inactive (10 µM); also recorded: no activation (10 µM) | induction of Nurr1-regulated gene expression [7]: no effect; also recorded: no induction | EC50(NOR-1) [8]: no effect; also recorded: no activation (10 µM) | EC50(Nur77) [9]: no effect; also recorded: no activation (10 µM) | Kd(Nurr1 LBD) [11]: no detectable binding; also recorded: no binding ^b
